Test results taken from PMC4992173, “Divergent synthesis and identification of the cellular targets of deoxyelephantopins” (Nature Communications, 2016).

Target: T1, FLYWCH family member 2 (FLYWCH2) (Homo sapiens, UniProt Q96CP2)
T1 construct: endogenous in cells; host or cells: MCF7
Experiment: In situ competitive profiling in live MCF7 cells (LFQ): FLYWCH2
Assay type: cell-based
Conditions: protein FLYWCH2, 4 h, then 10 µM 24c, n=4
Source text: In our efforts to determine the direct molecular targets of deoxyelephantopin we first performed a gel-based competitive in situ proteomic profiling assay[41] […] While the greater conformational flexibility of probe 24c could potentially lead to more promiscuous target engagement relatively to deoxyelephantopin, it was favoured based on the fact that an alkyne moiety appended to the rigid scaffold of deoxyelephantopin may hinder some of its interactions. MCF7 cells were pretreated with various concentrations of deoxyelephantopin for 4 h, harvested, lysed and the lysates were treated with the fluorogenic probe 24c-Cy3 (10 μM; Supplementary Fig. 10). […] Furthermore, cells were pretreated with 20 μM concentration of deoxyelephantopin or 24c and the proteomic profiles were compared (Fig. 6b, Supplementary Fig. 11). Multiple bands were detected that were equally competed by both DEP and 24c, thus again confirming that 24c can be used as an acceptable clickable analogue of deoxyelephantopin in pulldown assays. Having established the optimal labelling conditions by SDS–PAGE, we next carried out a mass spectrometry-based competitive profiling assay[42] coupled with the method of stable isotope labelling of amino acids in culture (SILAC)[43]. […]
Figure 6 Proteome-wide identification of deoxyelephantopin targets. […] Quantification was performed using label-free quantification (LFQ) method (n=4). […]

T1 sequence (Q96CP2 whole entry): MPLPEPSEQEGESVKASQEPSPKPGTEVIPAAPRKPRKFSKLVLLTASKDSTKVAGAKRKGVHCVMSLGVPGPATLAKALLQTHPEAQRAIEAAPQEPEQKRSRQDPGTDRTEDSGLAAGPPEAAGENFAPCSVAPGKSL

C=C(C)C(=O)O[C@H]1CC2=C[C@@H](C/C(C)=C/[C@H]3OC(=O)C(=C)[C@H]13)OC2=O [deoxyelephantopin]
LFQ ratio 20 µM Deoxyelephantopin/DMSO with 24c: 0.19
